Data on 21 compounds can be found in US11186576B2, “Pyrazolo[1,5-A][1,3,5]triazine and pyrazolo[1,5-A]pyrimidine derivatives as CDK inhibitors” (Aurigene Discovery Technologies Limited, priority 2015, dated 2021).

For the assay, the target named is CDK7/CycH/MNAT1 (Homo sapiens (Human), UniProt P50613). Description: Biochemical assay for CDK7 (TR-FRET kinase assay). As to conditions: 60 min pre-incubation, 1 mM ATP; for inhibition at 10 µM: 10 μM compound, read-out: % inhibition @ 10 μM; for IC50: read-out: IC50. How it is done:
The ability of compounds to inhibit CDK7 kinase activity was tested in a TR-FRET assay using 5 nM of CDK7/CycH/MNAT1 obtained from Invitrogen, USA. Test compounds were pre-incubated with the kinase at room temperature for 60 min. After incubation, substrate mix [100 nM Ultra-light MBP (Perkin Elmer, USA) and 1 mM ATP (Sigma)] was added. The above reaction was stopped by the addition of 40 mM EDTA after 60 minutes of kinase reaction. 1 nM Eu-labelled antiphospho-MBP antibody [Perkin Elmer, USA] was added, mixed well and the fluorescence emission at 615 nm and 665 nm [excitation at 340 nm] was measured. The final DMSO concentration in the assay was 1%. For IC50 determination, appropriate concentrations were made by ⅓^rd serial dilutions of 10 mM DMSO stock solution of test compound. All the fluorescence measurements were made in a Victor 3 Multilabel Counter [Perkin Elmer, USA]. The IC50 was determined by fitting the dose response data to sigmoidal curve fitting equation using GraphPad Prism software V5. To identify compounds that inhibit CDK7 irreversibly, time depended inhibition studies were carried by pre-incubating compound with the enzyme at three time points (20, 60 and 180 min) and carrying out assay as described above.
For orientation: TR-FRET usually uses a lanthanide donor and a delayed reading to cut background.

Structures are written as SMILES. A value given as a limit tells only on which side of the number the result lay.

Sequence of CDK7/CycH/MNAT1 (P50613 whole entry): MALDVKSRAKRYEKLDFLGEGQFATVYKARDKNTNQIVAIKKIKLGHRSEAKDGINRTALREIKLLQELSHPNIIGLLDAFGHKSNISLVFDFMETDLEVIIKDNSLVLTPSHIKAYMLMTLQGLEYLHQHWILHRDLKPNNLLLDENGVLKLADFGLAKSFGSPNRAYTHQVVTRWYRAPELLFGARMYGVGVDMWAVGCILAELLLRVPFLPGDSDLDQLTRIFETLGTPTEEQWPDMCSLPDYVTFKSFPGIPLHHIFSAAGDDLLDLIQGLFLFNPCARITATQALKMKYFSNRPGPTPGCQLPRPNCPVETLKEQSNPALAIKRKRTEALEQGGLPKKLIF
Sequence of CDK7/CycH/MNAT1 (P51946 whole entry partner): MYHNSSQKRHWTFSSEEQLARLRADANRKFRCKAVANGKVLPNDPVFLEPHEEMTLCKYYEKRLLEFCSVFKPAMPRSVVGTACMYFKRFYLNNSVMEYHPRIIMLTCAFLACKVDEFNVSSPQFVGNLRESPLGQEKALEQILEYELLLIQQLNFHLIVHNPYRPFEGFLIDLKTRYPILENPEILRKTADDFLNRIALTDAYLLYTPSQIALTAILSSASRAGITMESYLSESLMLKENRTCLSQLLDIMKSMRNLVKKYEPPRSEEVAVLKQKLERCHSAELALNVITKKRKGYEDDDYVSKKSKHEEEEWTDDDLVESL
Sequence of CDK7/CycH/MNAT1 (P51948 whole entry partner): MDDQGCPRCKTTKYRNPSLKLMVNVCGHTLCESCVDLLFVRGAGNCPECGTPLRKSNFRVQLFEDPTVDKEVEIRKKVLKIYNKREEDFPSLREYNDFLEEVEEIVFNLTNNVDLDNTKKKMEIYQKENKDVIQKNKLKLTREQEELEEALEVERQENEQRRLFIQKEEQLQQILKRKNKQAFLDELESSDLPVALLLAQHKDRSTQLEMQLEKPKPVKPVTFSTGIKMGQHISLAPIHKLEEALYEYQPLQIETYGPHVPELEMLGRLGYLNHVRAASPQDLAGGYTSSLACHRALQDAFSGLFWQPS

A word on the inhibition: it is the drop in the measured response relative to a control, in per cent. Usually IC50 stands for the concentration at which inhibition is half-maximal. In the case of `CC(C)c1cnn2c(NCc3cccc(NC(=O)/C=C/CN(C)C)c3)nc(NC3CCOCC3)nc12` [Compound 53, (E)-4-(dimethylamino)-N-(3-(((8-isopropyl-2-((tetrahydro-2H-pyran-4-yl)amino)pyrazolo[1,5-a][1,3,5]triazin-4-yl)amino)methyl)phenyl)but-2-enamide], the inhibition at 10 µM was found to be 99% and the IC50 is under 300 nM.
The matching figures for `CC(C)c1cnn2c(NCc3cccc(NC(=O)/C=C/CN4CCCC4)c3)nc(NC3CCOCC3)nc12` [Compound 54, (E)-N-(3-(((8-isopropyl-2-((tetrahydro-2H-pyran-4-yl)amino)pyrazolo[1,5-a][1,3,5]triazin-4-yl)amino)methyl)phenyl)-4-(pyrrolidin-1-yl)but-2-enamide]: 98% and under 300 nM.
The matching figures for `CC(C)c1cnn2c(NCc3cccc(NC(=O)/C=C/CN4CCCCC4)c3)nc(NC3CCOCC3)nc12` [Compound 55, (E)-N-(3-(((8-isopropyl-2-((tetrahydro-2H-pyran-4-yl)amino)pyrazolo[1,5-a][1,3,5]triazin-4-yl)amino)methyl)phenyl)-4-(piperidin-1-yl)but-2-enamide]: 99% and under 300 nM.
On to `CC(C)c1cnn2c(NCc3cccc(NC(=O)/C=C/CN4CCC(F)C4)c3)nc(NC3CCOCC3)nc12` (stereo not drawn) [Compound 56, (E)-4-(3-fluoropyrrolidin-1-yl)-N-(3-(((8-isopropyl-2-((tetrahydro-2H-pyran-4-yl)amino)pyrazolo[1,5-a][1,3,5]triazin-4-yl)amino)methyl)phenyl)but-2-enamide], for which the inhibition at 10 µM came out at 97% and the IC50 was under 300 nM.
As to `CC(C)c1cnn2c(NCc3cccc(NC(=O)/C=C/CN4CCC(F)(F)C4)c3)nc(NC3CCOCC3)nc12` [Compound 57, (E)-4-(3,3-difluoropyrrolidin-1-yl)-N-(3-(((8-isopropyl-2-((tetrahydro-2H-pyran-4-yl)amino)pyrazolo[1,5-a][1,3,5]triazin-4-yl)amino)methyl)phenyl)but-2-enamide], the inhibition at 10 µM was found to be 84% and the IC50 was over 1000 nM.
On the same counts, the results for `CC(C)c1cnn2c(NCc3cccc(NC(=O)/C=C/CN4CCCC(F)C4)c3)nc(NC3CCOCC3)nc12` (stereo not drawn) [Compound 58, (E)-4-(3-fluoropiperidin-1-yl)-N-(3-(((8-isopropyl-2-((tetrahydro-2H-pyran-4-yl)amino)pyrazolo[1,5-a][1,3,5]triazin-4-yl)amino)methyl)phenyl)but-2-enamide] are 96% and 300 to 1000 nM.
The matching figures for `CC(C)c1cnn2c(NCc3cc(F)cc(NC(=O)/C=C/CN(C)C)c3)nc(NC3CCOCC3)nc12` [Compound 59, (E)-4-(dimethylamino)-N-(3-fluoro-5-(((8-isopropyl-2-((tetrahydro-2H-pyran-4-yl)amino)pyrazolo[1,5-a][1,3,5]triazin-4-yl)amino)methyl)phenyl)but-2-enamide]: 98% and under 300 nM.
The matching figures for `CC(C)c1cnn2c(NCc3cccc(NC(=O)/C=C/CN(C)C)c3F)nc(NC3CCOCC3)nc12` [Compound 60, (E)-4-(dimethylamino)-N-(2-fluoro-3-(((8-isopropyl-2-((tetrahydro-2H-pyran-4-yl)amino)pyrazolo[1,5-a][1,3,5]triazin-4-yl)amino)methyl)phenyl)but-2-enamide]: 98% and under 300 nM.
`CC(C)c1cnn2c(NCc3cc(F)cc(NC(=O)/C=C/CN4CCOCC4)c3)nc(NC3CCOCC3)nc12` [Compound 61, (E)-N-(3-fluoro-5-(((8-isopropyl-2-((tetrahydro-2H-pyran-4-yl)amino)pyrazolo[1,5-a][1,3,5]triazin-4-yl)amino)methyl)phenyl)-4-morpholinobut-2-enamide]: the inhibition at 10 µM stood at 76% and the IC50 was over 1000 nM.
The matching figures for `CC(C)c1cnn2c(NCc3ccccc3NC(=O)/C=C/CN(C)C)nc(NC3CCOCC3)nc12` [Compound 62, (E)-4-(dimethylamino)-N-(2-(((8-isopropyl-2-((tetrahydro-2H-pyran-4-yl)amino)pyrazolo[1,5-a][1,3,5]triazin-4-yl)amino)methyl)phenyl)but-2-enamide]: 97% and under 300 nM.
On to `CC(C)c1cnn2c(NCc3ccc(NC(=O)/C=C/CN4CCCC4)cc3)nc(NC3CCOCC3)nc12` [Compound 63, (E)-N-(4-(((8-isopropyl-2-((tetrahydro-2H-pyran-4-yl)amino)pyrazolo[1,5-a][1,3,5]triazin-4-yl)amino)methyl)phenyl)-4-(pyrrolidin-1-yl)but-2-enamide], for which the inhibition at 10 µM is 94% and the IC50 lay in the range of 300 to 1000 nM.
Take `CC(C)c1cnn2c(NCc3ccc(F)c(NC(=O)C4CCN(C(=O)/C=C/CN(C)C)C4)c3)nc(NC3CCOCC3)nc12` (stereo not drawn) [Compound 64, (E)-1-(4-(dimethylamino)but-2-enoyl)-N-(2-fluoro-5-(((8-isopropyl-2-((tetrahydro-2H-pyran-4-yl)amino)pyrazolo[1,5-a][1,3,5]triazin-4-yl)amino)methyl)phenyl) pyrrolidine-3-carboxamide]: the inhibition at 10 µM came to 91% and the IC50 was in the range of 300 to 1000 nM.
The matching figures for `C/C=C/C(=O)N1CCC1C(=O)Nc1cccc(CNc2nc(NC3CCOCC3)nc3c(C(C)C)cnn23)c1` (stereo not drawn) [Compound 65, (E)-1-(but-2-enoyl)-N-(3-(((8-isopropyl-2-((tetrahydro-2H-pyran-4-yl)amino)pyrazolo[1,5-a][1,3,5]triazin-4-yl)amino)methyl)phenyl)azetidine-2-carboxamide]: 86% and over 1000 nM.
With `C#CC(=O)N1CCC1C(=O)Nc1cccc(CNc2nc(NC3CCOCC3)nc3c(C(C)C)cnn23)c1` (stereo not drawn) [Compound 66, N-(3-(((8-isopropyl-2-((tetrahydro-2H-pyran-4-yl)amino)pyrazolo[1,5-a][1,3,5]triazin-4-yl)amino)methyl)phenyl)-1-propioloylazetidine-2-carboxamide], the inhibition at 10 µM was 98% and the IC50 is under 300 nM.
Take `C=C(C)C(=O)N1CCC1C(=O)Nc1cccc(CNc2nc(NC3CCOCC3)nc3c(C(C)C)cnn23)c1` (stereo not drawn) [Compound 67, N-(3-(((8-isopropyl-2-((tetrahydro-2H-pyran-4-yl)amino)pyrazolo[1,5-a][1,3,5]triazin-4-yl)amino)methyl)phenyl)-1-methacryloylazetidine-2-carboxamide]: the inhibition at 10 µM is 91% and the IC50 fell in the range of 300 to 1000 nM.
On the same counts, the results for `COC/C=C/C(=O)N1CCC(C(=O)Nc2cccc(CNc3nc(NC4CCOCC4)nc4c(C(C)C)cnn34)c2)C1` (stereo not drawn) [Compound 68, (E)-N-(3-(((8-isopropyl-2-((tetrahydro-2H-pyran-4-yl)amino)pyrazolo[1,5-a][1,3,5]triazin-4-yl)amino)methyl)phenyl)-1-(4-methoxybut-2-enoyl)pyrrolidine-3-carboxamide] are 92% and 300 to 1000 nM.
On the same counts, the results for `CC(C)c1cnn2c(NCc3cc(NC(=O)C4CCN(C(=O)/C=C/CN(C)C)C4)ccc3F)nc(NC3CCOCC3)nc12` (stereo not drawn) [Compound 70, (E)-1-(4-(dimethylamino)but-2-enoyl)-N-(4-fluoro-3-(((8-isopropyl-2-((tetrahydro-2H-pyran-4-yl)amino)pyrazolo[1,5-a][1,3,5]triazin-4-yl)amino)methyl)phenyl)pyrrolidine-3-carboxamide] are 85% and 300 to 1000 nM.
On the same counts, the results for `CC(C)c1cnn2c(NCc3cc(F)cc(NC(=O)C4CCN(C(=O)/C=C/CN(C)C)C4)c3)nc(NC3CCOCC3)nc12` (stereo not drawn) [Compound 71, (E)-1-(4-(dimethylamino)but-2-enoyl)-N-(3-fluoro-5-(((8-isopropyl-2-((tetrahydro-2H-pyran-4-yl)amino)pyrazolo[1,5-a][1,3,5]triazin-4-yl)amino)methyl)phenyl)pyrrolidine-3-carboxamide] are 92% and 300 to 1000 nM.
Regarding `CC(C)c1cnn2c(NC(C)c3cccc(NC(=O)C4CCCN(C(=O)/C=C/CN(C)C)C4)c3)nc(NC3CCOCC3)nc12` (stereo not drawn) [Compound 72, (E)-1-(4-(dimethylamino)but-2-enoyl)-N-(3-(1-((8-isopropyl-2-((tetrahydro-2H-pyran-4-yl)amino)pyrazolo[1,5-a][1,3,5]triazin-4-yl)amino)ethyl)phenyl)piperidine-3-carboxamide], the inhibition at 10 µM stood at 84% and the IC50 was 300 to 1000 nM.
The matching figures for `CC(C)c1cnn2c(NCc3cccc(NC(=O)C4COCCN4C(=O)/C=C/CN(C)C)c3)nc(NC3CCOCC3)nc12` (stereo not drawn) [Compound 73, (E)-4-(4-(dimethylamino)but-2-enoyl)-N-(3-(((8-isopropyl-2-((tetrahydro-2H-pyran-4-yl)amino)pyrazolo[1,5-a][1,3,5]triazin-4-yl)amino)methyl)phenyl)morpholine-3-carboxamide]: 101% and under 300 nM.
On the same counts, the results for `CC(C)c1cnn2c(NCc3cccc(NC(=O)C4CCCCN4C(=O)/C=C/CN(C)C)c3)nc(NC3CCOCC3)nc12` (stereo not drawn) [Compound 74, (E)-1-(4-(dimethylamino)but-2-enoyl)-N-(3-(((8-isopropyl-2-((tetrahydro-2H-pyran-4-yl)amino)pyrazolo[1,5-a][1,3,5]triazin-4-yl)amino)methyl)phenyl)piperidine-2-carboxamide] are 99% and under 300 nM.
